Drawing on US9896445B2, “Heterocyclic inhibitors of ERK1 and ERK2 and their use in the treatment of cancer” (Asana Biosciences, LLC, priority 2015, dated 2018), this text covers IC50 for 26 compounds.

One assay has as its target T1, ERK2 (Homo sapiens, UniProt P28482).
T1 construct: purchased Jubilant Biosys
The assay is described as follows: ERK2 HTRF (biochemical) assay. The settings on record: HTRF. The method, then: (§1) ERK1 and ERK2 HTRF (Biochemical) Assays
These assays employed a homogeneous time resolved fluorescence (HTRF) technique. The compounds were serially diluted by half-log with concentrations ranging from 0.0005 to 10 uM in the assay buffer (50 mM Tris pH=7.5, 1 mM EGTA, 2 mM DTT, 10 mM MgCl2, 0.1% Tween-20) and 20 uL of substrate-ATP mix [1 uM Biotin-LC-Myelin Basic Protein (MBP) derivatized Peptide (Anaspec)-24 uM ATP (Sigma)] was added to each well of the assay plate. Then 10 uL of enzyme mix [25 nM ERK1 or ERK2 (Jubilant Biosys) in assay buffer] was added to each well. The plate was incubated at room temperature for 60 min with shaking. The HTRF mix [625 nM LANCE® Ultra Europium-anti-phospho-MBP (Perkin Elmer) and 2 nM Phycolink® Streptavidin-Allophycocyanin (SA-APC) (Prozyme) in HTRF buffer (50 mM Tris-HCl pH=7.5, 100 mM NaCl, 0.1% BSA, 0.05% Tween20, 0.5 mM EDTA)] was prepared and 75 uL of this mix was added to the HTRF plate. After incubation for 60 min at room temperature, 10 uL of the reaction mixture was transferred to the HTRF assay plate and incubated for 45 min at room temperature with shaking. Plate was read using Pherastar in HTRF mode (excitation 337 nm, emission 665 & 620 nm). The IC50 values (half maximal inhibitory concentration values) were subsequently determined using a sigmoidal dose-response curve (variable slope) in GraphPad Prism® 5 software.

Another assay addresses T2, ERK1 (Homo sapiens, UniProt P27361).
T2 construct: purchased Jubilant Biosys
The assay is described as follows: ERK1 HTRF (biochemical) assay. The settings on record: HTRF. The method, then:
as §1
These assays employed a homogeneous time resolved fluorescence (HTRF) technique. […] The plate was incubated at room temperature for 60 min with shaking. […] The IC50 values (half maximal inhibitory concentration values) were subsequently determined using a sigmoidal dose-response curve (variable slope) in GraphPad Prism® 5 software.

T1 sequence (P28482 whole entry): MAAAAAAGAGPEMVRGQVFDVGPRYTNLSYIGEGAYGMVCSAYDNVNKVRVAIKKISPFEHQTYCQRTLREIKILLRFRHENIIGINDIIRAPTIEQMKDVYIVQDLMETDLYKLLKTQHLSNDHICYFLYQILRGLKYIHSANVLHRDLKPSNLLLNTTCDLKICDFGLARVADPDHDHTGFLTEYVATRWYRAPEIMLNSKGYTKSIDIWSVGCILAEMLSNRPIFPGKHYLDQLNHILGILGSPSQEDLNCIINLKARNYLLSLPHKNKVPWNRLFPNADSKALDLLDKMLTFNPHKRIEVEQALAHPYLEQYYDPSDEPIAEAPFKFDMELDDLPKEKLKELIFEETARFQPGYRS
T2 sequence (P27361 whole entry): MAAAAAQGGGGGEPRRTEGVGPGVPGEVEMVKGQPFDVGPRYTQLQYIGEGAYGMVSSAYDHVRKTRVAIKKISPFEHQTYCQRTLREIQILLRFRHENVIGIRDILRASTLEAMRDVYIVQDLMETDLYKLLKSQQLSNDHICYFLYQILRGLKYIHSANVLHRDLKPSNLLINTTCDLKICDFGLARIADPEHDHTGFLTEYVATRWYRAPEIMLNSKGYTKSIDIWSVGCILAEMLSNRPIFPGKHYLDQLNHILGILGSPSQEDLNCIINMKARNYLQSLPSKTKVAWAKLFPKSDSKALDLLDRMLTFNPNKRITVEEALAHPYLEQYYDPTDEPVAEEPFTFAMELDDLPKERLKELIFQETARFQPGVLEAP

Turning to `Cc1cnc(Nc2ccc3c(c2)OC(C)(C)O3)nc1-n1ccc(C(=O)NC(CO)c2ccccc2)c1` (centres unmarked) [Compound 95, 1-(2-((2,2-dimethylbenzo[d] [1,3]dioxol-5-yl)-amino)-5-methyl-pyrimidin-4-yl)-N-(2-hydroxy-1-phenylethyl)-1H-pyrrole-3-carboxamide], the half-inhibitory concentration (IC50) is not above 50 nM on ERK2 and 50 to 100 nM against ERK1.

Consider `Cc1cnc(Nc2ccc3c(c2)OCO3)nc1-n1ccc(C(=O)NC(CO)c2cccc(Cl)c2F)c1` (centres unmarked) [Compound 70, 1-(2-(benzo[d][1,3]dioxol-5-ylamino)-5-methylpyrimidin-4-yl)-N-(1-(3-chloro-2-fluorophenyl)-2-hydroxyethyl)-1H-pyrrole-3-carboxamide], for which the figures for the IC50 against ERK2 and at ERK1 were not above 50 nM and less than 50 nM, respectively.

With `Cc1cnc(Nc2ccc(F)cc2Cl)nc1-n1ccc(C(=O)NC(CN)c2cccc(Cl)c2)c1` (centres unmarked) [Compound 169, N-(2-amino-1-(3-chlorophenyl)ethyl)-1-(2-((2-chloro-4-fluorophenyl)amino)-5-methyl-pyrimidin-4-yl)-1H-pyrrole-3-carboxamide], the IC50 against ERK2 and at ERK1 was 50 to 100 nM in each case.

As to `Cc1cnc(NC2CCOC(C)C2)nc1-n1cnc(C(=O)N[C@H](CO)c2cccc(Cl)c2)c1` (stereo partly drawn) [Compound 251, N-((S)-1-(3-chlorophenyl)-2-hydroxyethyl)-1-(5-methyl-2-((2-methyltetrahydro-2H-pyran-4-yl)amino)pyrimidin-4-yl)-1H-imidazole-4-carboxamide], the IC50 was not above 50 nM against ERK2 and less than 50 nM against ERK1.

Take `Cc1cnc(Nc2ccc(F)cc2Cl)nc1-n1cc(NC(=O)N[C@H](CO)c2ccc(F)c(Cl)c2)cn1` [Compound 26, (S)-1-(1-(3-chloro-4-fluorophenyl)-2-hydroxyethyl)-3-(1-(2-((2-chloro-4-fluorophenyl)amino)-5-methyl-pyrimidin-4-yl)-1H-pyrazol-4-yl)urea]: the IC50 against ERK1 is less than 50 nM.

As to `Cc1cnc(NC(CO)CO)nc1-n1ccc(C(=O)NC(CO)c2ccccc2)c1` (centres unmarked) [Compound 147, 1-(2-((1,3-dihydroxypropan-2-yl)amino)-5-methylpyrimidin-4-yl)-N-(2-hydroxy-1-phenylethyl)-1H-pyrrole-3-carboxamide], the values for the IC50 against ERK2 and on ERK1 were not above 50 nM and 50 to 100 nM, respectively.

For the compound `Cc1cnc(Nc2ccccc2)cc1-n1cnc(C(=O)NC(CO)c2cccc(Cl)c2)c1` (centres unmarked) [Compound 180, N-(1-(3-chloro-phenyl)-2-hydroxyethyl)-1-(5-methyl-2-(phenyl-amino)pyridin-4-yl)-1H-imidazole-4-carboxamide], the results for the half-inhibitory concentration (IC50) at ERK2 and at ERK1 were not above 50 nM and less than 50 nM, respectively.

Take `O=C(N[C@H](CO)c1cccc(Cl)c1)c1cn(-c2ccnc(Nc3ccccc3)c2)cn1` [Compound 72, (S)-N-(1-(3-chlorophenyl)-2-hydroxyethyl)-1-(2-(phenylamino)pyridin-4-yl)-1H-imidazole-4-carboxamide]: the IC50 on ERK2 was not above 50 nM; against ERK1 it was less than 50 nM.

At ERK2, `Cc1cnc(Nc2ccccc2Cl)nc1-n1cc(NC(=O)N[C@@H](CO)c2cccc(Cl)c2)cn1` [Compound 61, (R)-1-(1-(3-chlorophenyl)-2-hydroxyethyl)-3-(1-(2-((2-chloro-phenyl)amino)-5-methylpyrimidin-4-yl)-1H-pyrazol-4-yl)urea] displayed an IC50 of 500 to 2500 nM.

Regarding `O=C(N[C@H](CO)c1cccc(Cl)c1)c1ccn(-c2ccnc(Nc3ccc(F)cc3Cl)n2)c1` [Compound 112, (S)-1-(2-((2-chloro-4-fluorophenyl)-amino)pyrimidin-4-yl)-N-(1-(3-chlorophenyl)-2-hydroxyethyl)-1H-pyrrole-3-carboxamide], the IC50 at ERK2 is not above 50 nM; on ERK1, less than 50 nM.

As for `Cc1cnc(NC2CCOCC2)nc1-n1cnc(C(=O)NC(CN)c2ccc(Cl)s2)c1` (single isomer, unassigned; enantiomer #2) [Example 291, N-(2-amino-1-(5-chlorothiophen-2-yl)ethyl)-1-(5-methyl-2-((tetrahydro-2H-pyran-4-yl)amino)-pyrimidin-4-yl)-1H-imidazole-4-carboxamide (enantiomer #2)], the concentration for half-maximal inhibition (IC50) against ERK2 was not above 50 nM; against ERK1, less than 50 nM.

In the case of `Cc1c(NC(=O)N[C@H](CO)c2cccc(Cl)c2)cnn1-c1ccnc(Nc2ccccc2Cl)n1` [Compound 11, (S)-1-(1-(3-chlorophenyl)-2-hydroxyethyl)-3-(1-(2-((2-chloro-phenyl)amino)pyrimidin-4-yl)-5-methyl-1H-pyrazol-4-yl)urea], the half-maximal inhibitory concentration (IC50) on ERK2 was more than 2500 nM.

Consider `Cc1cnc(Nc2ccc(F)cc2Cl)nc1-n1cc(NC(=O)N[C@@H](CO)c2cccc(Cl)c2)cn1` [Compound 56, (R)-1-(1-(2-((2-chloro-4-fluoro-phenyl)amino)-5-methylpyrimidin-4-yl)-1H-pyrazol-4-yl)-3-(1-(3-chloro-phenyl)-2-hydroxy-ethyl)urea], for which the IC50 at ERK2 fell in the range of 100 to 500 nM.

`O=C(NCc1cccc(Cl)c1)Nc1cnn(-c2ccnc(Nc3ccccc3Cl)n2)c1` [Compound 9, 1-(3-chlorobenzyl)-3-(1-(2-((2-chloro-phenyl)amino)pyrimidin-4-yl)-1H-pyrazol-4-yl)urea] gave an IC50 on ERK2 of more than 2500 nM.

As for `Cc1cnc(Nc2ccc(F)cc2Cl)nc1-n1ccc(C(=O)N[C@@H](CN(C)C)c2ccccc2)c1` [Compound 97, (R)-1-(2-((2-chloro-4-fluorophenyl)amino)-5-methy-lpyrimidin-4-yl)-N-(2-(dimethylamino)-1-phenylethyl)-1H-pyrrole-3-carboxamide], at ERK2, the IC50 lay within 100 to 500 nM.

On ERK2, `Cc1cnc(Nc2ccc3occc3c2)nc1-n1ccc(C(=O)NC(CO)c2ccccc2)c1` (centres unmarked) [Compound 65, 1-(2-(benzofuran-5-ylamino)-5-methylpyrimidin-4-yl)-N-(2-hydroxy-1-phenylethyl)-1H-pyrrole-3-carboxamide] showed an IC50 not above 50 nM.

`NCC(Cc1ccccc1)NC(=O)c1ccn(-c2ccnc(Nc3ccc(F)cc3)c2)c1` (centres unmarked) [Compound 119, N-(1-amino-3-phenylpropan-2-yl)-1-(2-((4-fluoro-phenyl)amino)pyridin-4-yl)-1H-pyrrole-3-carboxamide] gave an IC50 against ERK2 of 100 to 500 nM.

On ERK2, `O=C(NC(CO)c1ccccc1)c1ccn(-c2nc(Nc3ccc(F)cc3Cl)ncc2C(F)(F)F)c1` (centres unmarked) [Compound 122, 1-(2-((2-chloro-4-fluorophenyl)amino)-5-(trifluoro-methyl)pyrimidin-4-yl)-N-(2-hydroxy-1-phenylethyl)-1H-pyrrole-3-carboxamide] registered an IC50 of more than 2500 nM.

The compound `CC(NC(=O)Nc1cnn(-c2ccnc(Nc3ccccc3Cl)n2)c1)c1cccc(Cl)c1` (centres unmarked) [Compound 5, 1-(1-(2-((2-chlorophenyl)amino)pyrimidin-4-yl)-1H-pyrazol-4-yl)-3-(1-(3-chloro-phenyl)ethyl)urea] returned an IC50 on ERK1 of 100 to 500 nM.

On ERK2, `C[C@@H](NC(=O)Nc1cnn(-c2ccnc(Nc3ccccc3Cl)n2)c1)c1cccc(Cl)c1` [Compound 10] displayed an IC50 of more than 2500 nM.

Compound `Cc1cnc(NC2CCOCC2)nc1-n1ccc(C(=O)NC(CO)c2ccccc2)c1` (centres unmarked) [Compound 120, N-(2-hydroxy-1-phenylethyl)-1-(5-methyl-2-((tetrahydro-2H-pyran-4-yl)amino)pyrimidin-4-yl)-1H-pyrrole-3-carboxamide] came in with an IC50 against ERK2 of 100 to 500 nM.

With `O=C(NC(CO)c1cccc(Cl)c1)c1cnn(-c2ccnc(Nc3ccccc3)n2)c1` (centres unmarked) [Compound 52, N-(1-(3-chloro-phenyl)-2-hydroxy-ethyl)-1-(2-(phenyl-amino)pyrimidin-4-yl)-1H-pyrazole-4-carboxamide], the concentration for half-maximal inhibition (IC50) on ERK2 was 100 to 500 nM.

Turning to `Cc1cnc(Nc2ccc(F)cc2Cl)nc1-n1cc(NC(=O)N[C@H](CO)c2cccc(Cl)c2)cn1` [Compound 25, (S)-1-(1-(2-((2-chloro-4-fluoro-phenyl)amino)-5-methylpyrimidin-4-yl)-1H-pyrazol-4-yl)-3-(1-(3-chloro-phenyl)-2-hydroxy-ethyl)urea], the IC50 against ERK1 is less than 50 nM.

`Cc1cnc(Nc2ccc3ocnc3c2)nc1-n1ccc(C(=O)NC(CO)c2ccccc2)c1` (centres unmarked) [Compound 104]: the IC50 against ERK2 is 100 to 500 nM.

Consider `COc1cc(N2CCN(C(C)=O)CC2)ccc1Nc1nccc(-n2cc(NC(=O)N[C@H](CO)c3cccc(Cl)c3)cn2)n1` [Compound 15, (S)-1-(1-(2-((4-(4-acetylpiperazin-1-yl)-2-methoxy-phenyl)amino)pyrimidin-4-yl)-1H-pyrazol-4-yl)-3-(1-(3-chlorophenyl)-2-hydroxyethyl)urea], for which the IC50 at ERK1 lay in the range of 50 to 100 nM.

Compound `Cc1cnc(Nc2ccc3c(c2)OCO3)nc1-n1cc(C(=O)N[C@H](CO)c2cccc(Cl)c2)cn1` [Compound 50, (S)-1-(2-(benzo[d][1,3]dioxol-5-ylamino)-5-methylpyrimidin-4-yl)-N-(1-(3-chloro-phenyl)-2-hydroxy-ethyl)-1H-pyrazole-4-carboxamide] had an IC50 on ERK2 not above 50 nM.
